{
  "source": "BigSolDB 2.1",
  "data": [
    {"molecule": "NC(N)=C([N+](=O)[O-])[N+](=O)[O-]", "values": [
      {"measurement": "solubility (mole fraction)", "setting": "in DMF, 293.15 K", "value": 0.0918},
      {"measurement": "solubility (mole fraction)", "setting": "in DMF, 303.15 K", "value": 0.102},
      {"measurement": "solubility (mole fraction)", "setting": "in DMF, 313.15 K", "value": 0.11},
      {"measurement": "solubility (mole fraction)", "setting": "in DMF, 323.15 K", "value": 0.119},
      {"measurement": "solubility (mole fraction)", "setting": "in DMF, 333.15 K", "value": 0.129},
      {"measurement": "solubility (mole fraction)", "setting": "in DMF, 343.15 K", "value": 0.137},
      {"measurement": "solubility (mole fraction)", "setting": "in DMF, 353.15 K", "value": 0.148},
      {"measurement": "solubility (mole fraction)", "setting": "in DMF, 363.15 K", "value": 0.162},
      {"measurement": "solubility (mole fraction)", "setting": "in DMSO, 293.15 K", "value": 0.183},
      {"measurement": "solubility (mole fraction)", "setting": "in DMSO, 303.15 K", "value": 0.191},
      {"measurement": "solubility (mole fraction)", "setting": "in DMSO, 313.15 K", "value": 0.199},
      {"measurement": "solubility (mole fraction)", "setting": "in DMSO, 323.15 K", "value": 0.207},
      {"measurement": "solubility (mole fraction)", "setting": "in DMSO, 333.15 K", "value": 0.217},
      {"measurement": "solubility (mole fraction)", "setting": "in DMSO, 343.15 K", "value": 0.229},
      {"measurement": "solubility (mole fraction)", "setting": "in DMSO, 353.15 K", "value": 0.242},
      {"measurement": "solubility (mole fraction)", "setting": "in DMSO, 363.15 K", "value": 0.254},
      {"measurement": "solubility (mole fraction)", "setting": "in NMP, 293.15 K", "value": 0.168},
      {"measurement": "solubility (mole fraction)", "setting": "in NMP, 303.15 K", "value": 0.178},
      {"measurement": "solubility (mole fraction)", "setting": "in NMP, 313.15 K", "value": 0.184},
      {"measurement": "solubility (mole fraction)", "setting": "in NMP, 323.15 K", "value": 0.194},
      {"measurement": "solubility (mole fraction)", "setting": "in NMP, 333.15 K", "value": 0.203},
      {"measurement": "solubility (mole fraction)", "setting": "in NMP, 343.15 K", "value": 0.214},
      {"measurement": "solubility (mole fraction)", "setting": "in NMP, 353.15 K", "value": 0.227},
      {"measurement": "solubility (mole fraction)", "setting": "in NMP, 363.15 K", "value": 0.24}
    ]}
  ]
}
